What was measured:
[1] = molecular target: Cyclin-dependent kinase 4/cyclin D1 (Homo sapiens, UniProt P11802); assay: Inhibition of recombinant human full-length GST-tagged CDK4/cyclinD1 expressed in baculovirus expression system using PEP as substrate incubated for 3 mins in presence of ATP by TR-FRET assay
CDK9/cyclin T1 = CDK9/cyclin T1 (Homo sapiens, UniProt P50750); assay: Inhibition of human full-length N-terminal GST-fused CDK9 (1 to 372 residues)/His-tagged Cyclin-T1 (1 to 726 residues) expressed in baculovirus expression system using PEP as substrate incubated for 17 mins in presence of ATP by TR-FRET assay
CDK6/cyclin D3 = CDK6/cyclin D3 (Homo sapiens, UniProt Q00534); assay: Inhibition of human full-length N-terminal GST tagged CDK6 (1 to 326 residues)/cyclinD3 (1 to 292 residues) expressed in baculovirus expression system using PEP as substrate incubated for 3 mins in presence of ATP by TR-FRET assay
[2] = Half life in rat at 100 mg/kg, po measured up to 48 hrs by LC-MS/MS analysis; type: ADME, organism-based; settings: in vivo
[3] = Oral bioavailability in rat at 100 mg/kg administered as single dose measured up to 48 hrs by LC-MS/MS analysis; type: ADME, organism-based; settings: in vivo

Chain of CDK6/cyclin D3 (P30281 whole entry, the tested form may be a part): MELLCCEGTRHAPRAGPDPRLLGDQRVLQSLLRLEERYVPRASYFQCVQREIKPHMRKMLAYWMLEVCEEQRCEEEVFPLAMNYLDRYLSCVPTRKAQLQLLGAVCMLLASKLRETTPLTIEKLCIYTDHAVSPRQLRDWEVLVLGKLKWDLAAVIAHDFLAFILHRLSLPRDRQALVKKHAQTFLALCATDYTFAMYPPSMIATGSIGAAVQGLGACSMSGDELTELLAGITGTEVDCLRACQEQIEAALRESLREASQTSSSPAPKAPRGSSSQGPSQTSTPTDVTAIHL
Chain of CDK6/cyclin D3 (Q00534 whole entry, the tested form may be a part): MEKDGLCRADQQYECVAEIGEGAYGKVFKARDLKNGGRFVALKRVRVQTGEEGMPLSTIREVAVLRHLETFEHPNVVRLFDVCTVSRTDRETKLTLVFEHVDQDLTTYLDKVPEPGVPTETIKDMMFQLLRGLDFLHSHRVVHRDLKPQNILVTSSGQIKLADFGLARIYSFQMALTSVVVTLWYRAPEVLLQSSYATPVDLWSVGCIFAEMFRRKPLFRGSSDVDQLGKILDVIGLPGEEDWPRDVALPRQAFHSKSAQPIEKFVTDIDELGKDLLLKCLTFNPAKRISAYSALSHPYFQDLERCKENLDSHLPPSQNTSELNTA
Chain of Cyclin-dependent kinase 4/cyclin D1 (P11802 whole entry, the tested form may be a part): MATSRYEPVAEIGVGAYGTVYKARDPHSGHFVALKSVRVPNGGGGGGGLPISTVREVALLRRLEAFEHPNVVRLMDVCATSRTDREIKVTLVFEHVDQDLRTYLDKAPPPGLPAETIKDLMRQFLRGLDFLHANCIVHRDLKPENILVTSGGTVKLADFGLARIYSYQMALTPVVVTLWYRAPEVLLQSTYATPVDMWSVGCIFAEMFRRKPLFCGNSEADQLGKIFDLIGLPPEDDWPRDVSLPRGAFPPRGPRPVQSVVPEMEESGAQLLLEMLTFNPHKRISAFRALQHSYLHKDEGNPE
Chain of Cyclin-dependent kinase 4/cyclin D1 (P24385 whole entry, further chain, the tested form may be a part): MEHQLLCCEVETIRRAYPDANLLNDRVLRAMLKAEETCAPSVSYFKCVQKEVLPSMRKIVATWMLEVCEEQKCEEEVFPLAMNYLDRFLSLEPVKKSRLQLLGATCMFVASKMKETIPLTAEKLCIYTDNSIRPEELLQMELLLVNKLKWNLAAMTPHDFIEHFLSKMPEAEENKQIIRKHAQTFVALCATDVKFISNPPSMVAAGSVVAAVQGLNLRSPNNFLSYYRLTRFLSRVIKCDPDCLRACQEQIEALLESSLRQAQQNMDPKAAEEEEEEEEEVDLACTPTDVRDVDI
Chain of CDK9/cyclin T1 (O60563 whole entry, the tested form may be a part): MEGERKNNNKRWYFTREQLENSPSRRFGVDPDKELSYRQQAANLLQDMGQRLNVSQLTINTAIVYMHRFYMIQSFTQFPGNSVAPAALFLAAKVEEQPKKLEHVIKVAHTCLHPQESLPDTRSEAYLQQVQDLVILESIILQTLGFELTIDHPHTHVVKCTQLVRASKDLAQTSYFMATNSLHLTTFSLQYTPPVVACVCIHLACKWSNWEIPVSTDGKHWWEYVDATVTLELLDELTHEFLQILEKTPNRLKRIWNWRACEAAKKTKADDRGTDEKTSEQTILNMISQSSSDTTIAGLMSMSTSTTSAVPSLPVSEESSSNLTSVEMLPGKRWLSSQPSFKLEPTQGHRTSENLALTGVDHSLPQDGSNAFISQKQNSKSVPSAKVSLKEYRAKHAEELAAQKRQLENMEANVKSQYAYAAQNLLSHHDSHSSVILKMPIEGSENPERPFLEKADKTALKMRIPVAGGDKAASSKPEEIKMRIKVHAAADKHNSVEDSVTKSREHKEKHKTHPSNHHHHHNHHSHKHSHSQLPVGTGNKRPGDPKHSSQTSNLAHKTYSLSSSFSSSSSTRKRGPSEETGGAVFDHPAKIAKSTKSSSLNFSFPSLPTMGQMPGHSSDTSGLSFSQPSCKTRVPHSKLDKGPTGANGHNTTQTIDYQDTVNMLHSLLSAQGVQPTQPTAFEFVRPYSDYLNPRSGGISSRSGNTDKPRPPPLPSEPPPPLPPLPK
Chain of CDK9/cyclin T1 (P50750 whole entry, the tested form may be a part): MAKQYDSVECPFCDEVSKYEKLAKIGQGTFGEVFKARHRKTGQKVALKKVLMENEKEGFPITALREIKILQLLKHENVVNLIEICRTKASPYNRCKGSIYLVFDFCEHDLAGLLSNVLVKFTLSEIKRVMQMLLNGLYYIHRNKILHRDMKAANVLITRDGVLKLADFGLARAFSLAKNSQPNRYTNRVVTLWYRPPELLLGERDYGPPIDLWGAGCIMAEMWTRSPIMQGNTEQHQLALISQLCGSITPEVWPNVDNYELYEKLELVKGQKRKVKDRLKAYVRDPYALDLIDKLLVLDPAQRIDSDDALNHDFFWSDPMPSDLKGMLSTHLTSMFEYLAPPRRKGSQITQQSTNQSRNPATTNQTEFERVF

Row | IC50 [1] [nM] | IC50 (CDK9/cyclin T1) [nM] | IC50 (CDK6/cyclin D3) [nM] | half-life [2] [h] | bioavailability [3] [%] | SMILES
1 | 30 | 149 | – | – | – | CC(=O)c1c(C)c2cnc(Nc3ccc(N(C)CCN(C)C)cc3)nc2n(C23CC(C2)C3)c1=O
2 | 3.78 | 7.55 | – | – | – | CN1CCN(C2CCN(c3ccc(Nc4ncc5cc(C(=O)N(C)C)n(C67CC(C6)C7)c5n4)cc3F)CC2)CC1
3 | 3 | 31.8 | 10.1 | – | – | CC(=O)c1c(C)c2cnc(Nc3ccc(OCCN(C)C)c(F)c3)nc2n(C2CCCC2)c1=O
4 | < 3.2 | 7.13 | – | – | – | CC(=O)c1c(C)c2cnc(Nc3ccc(N(C)CCN(C)C)cc3)nc2n(C2CCCC2)c1=O
5 | 25.7 | 80.5 | – | – | – | CN1CCN(c2ccc(Nc3ncc4c(n3)N(C3CCCC3)C3(CC(=O)NC3=O)C4)cc2)CC1 (stereo not given)
6 | 28.4 | 70.7 | – | – | – | CC(C)N1CCN(c2ccc(Nc3ncc4c(n3)N(C3CCCC3)C3(CC(=O)NC3=O)C4)cc2)CC1 (stereo not given)
7 | 14.4 | 23.4 | 70.6 | – | – | CN1CCN(c2ccc(Nc3ncc4c(n3)N(C3CCCC3)C3(CC(=O)NC3=O)C4)cc2F)CC1 (stereo not given)
8 | 51.7 | 46.6 | 258 | – | – | CN1CCN(c2ccc(Nc3ncc4c(n3)N(C3CCCC3)C3(CCNC3=O)C4)cc2F)CC1 (stereo not given)
9 | 3.81 | 7.08 | – | 6 | 33.3 | CN1CCN(c2ccc(Nc3ncc4cc(C(=O)N(C)C)n(C56CC(C5)C6)c4n3)cc2)CC1
10 | < 3.2 | 6.03 | – | – | – | CC(=O)c1c(C)c2cnc(Nc3ccc(N4CC(C)NC(C)C4)cc3)nc2n(C2CCCC2)c1=O (stereo not given)
11 | 4.13 | 6.18 | 10.1 | – | – | CN(C)C(=O)c1cc2cnc(Nc3ccc(N4CCNCC4)c(F)c3)nc2n1C12CC(C1)C2
12 | < 3.2 | < 3.2 | – | – | – | CN(C)C(=O)c1cc2cnc(Nc3ccc(N4CCN(CCO)CC4)c(F)c3)nc2n1C12CC(C1)C2

Source: ChEMBL document CHEMBL4673382, “Cyclin-Dependent Kinase Inhibitors in Cancer Therapeutics” (ACS Med Chem Lett, 2021)
